In publication doi:10.1101/2025.11.04.686469, “Discovery of Host-Directed Small Molecules with Broad Anti-Leishmanial Efficacy” (bioRxiv, 2025):
pIC50: −log10 of the molar value.

Tests used:
[1] = test system: intracellular L. donovani amastigotes; test: Luminescent-based evaluation of intracellular anti-leishmanial activity in THP-1 macrophages; format: cell-based, Leishmania donovani; conditions: intracellular Leishmania donovani in THP1 macrophages, luminescence assay (Supplemental Table 2); read-out: Lum IC50
Summary of the method: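 PMA-differentiated THP-1 macrophages (150 nM, 72 h) were infected 18 h with firefly luciferase-expressing L. donovani LV82 promastigotes, then washed. Infected cells were treated with compounds at 0.1-10 μM for 72 h. Surviving intracellular amastigotes were quantified by firefly luciferase luminescence after cell lysis and 10 min substrate incubation at room temperature.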

THP-1 macrophages = test: Effect of compounds on host cell viability (MTT); format: cell-based; conditions: read-out: 24h LC50; THP1 macrophages, 24-hour incubation, MTT assay (Supplemental Table 2)
Summary of the method: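 THP-1 cells were differentiated with 150 nM PMA for 72 h, then exposed to compounds at 1–50 μM for 24 h; selected compounds were also run at 1–300 μM for 72 h. MTT at 0.5 mg/mL was added for 2 h at 37 °C, and formazan absorbance was read at 560 nm minus 670 nm.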

FC(F)(F)c1ccc(-c2ccc(-c3cc(C(F)(F)F)nn3-c3ccc(N4CCNCC4)cc3)cc2)cc1 [Compound 208]
pIC50 [1]: 5.24 | CC50 (THP-1 macrophages): 31 µM

FC(F)(F)c1cn(-c2ccc(Br)cc2)c(-c2ccc(Oc3ccccc3)cc2)n1 [Compound 219]
pIC50 [1]: < 5.00 | CC50 (THP-1 macrophages): > 50 µM

FC(F)(F)c1cc(-c2ccncc2)n(-c2ccc(Br)cc2)n1 [Compound 213]
pIC50 [1]: < 5.00 | CC50 (THP-1 macrophages): > 50 µM

N#Cc1ccc(-n2cc(C(F)(F)F)nc2-c2ccc(-c3ccccc3)cc2)cc1 [Compound 180]
pIC50 [1]: < 5.00 | CC50 (THP-1 macrophages): > 50 µM

Nc1ccc(-n2cc(C(F)(F)F)nc2-c2ccc(Br)cc2)cc1 [Compound 193]
pIC50 [1]: < 5.00 | CC50 (THP-1 macrophages): > 50 µM

FC(F)(F)c1cn(-c2ccc(NCc3ccccc3)cc2)c(-c2ccc(-c3ccccc3)cc2)n1 [Compound 87]
pIC50 [1]: 5.17 | CC50 (THP-1 macrophages): > 50 µM

FC(F)(F)c1cc(-c2ccc(C3CC3)cc2)n(-c2ccc(N3CCNCC3)cc2)n1 [Compound 211]
pIC50 [1]: 5.68 | CC50 (THP-1 macrophages): 13.2 µM

FC(F)(F)c1ccc(-c2nc(C(F)(F)F)cn2-c2ccc(NC3CCNC3)cc2)cc1 (centres unmarked) [Compound 296]
pIC50 [1]: 5.52 | CC50 (THP-1 macrophages): 12.9 µM

NC1CCN(c2ccc(-n3nncc3-c3ccc(C(F)(F)F)cc3)cc2)C1 (centres unmarked) [Compound 204]
pIC50 [1]: < 5.00 | CC50 (THP-1 macrophages): 37.2 µM

NCC(=O)Nc1ccc(-c2cc(C(F)(F)F)nn2-c2ccc(-c3ccc(C(F)(F)F)cc3)cc2)cc1 [Compound 155]
pIC50 [1]: 5.40 | CC50 (THP-1 macrophages): 6.1 µM

FC(F)(F)c1ccc(-c2ccc(-c3cc(C(F)(F)F)nn3-c3ccc(N4CCNCC4)cc3)cc2)cc1 [Compound 220]
pIC50 [1]: 5.89 | CC50 (THP-1 macrophages): 15.4 µM

O=C(C1CCCCC1)N1CC(Nc2ccc(-n3nc(C(F)(F)F)cc3-c3ccc(-c4ccc(C(F)(F)F)cc4)cc3)cc2)C1 [Compound 71]
pIC50 [1]: < 5.00 | CC50 (THP-1 macrophages): 8.4 µM

NCCOCCN1CCC(Oc2ccc(-n3nc(C(F)(F)F)cc3C3CCCCC3)cc2)CC1 [Compound 423]
pIC50 [1]: 5.22 | CC50 (THP-1 macrophages): 3.4 µM

FC(F)(F)c1ccc(-c2ccc(-c3cc(C(F)(F)F)nn3-c3ccc(OC4CCNCC4)cc3)cc2)cc1 [Compound 34]
pIC50 [1]: 5.22 | CC50 (THP-1 macrophages): > 50 µM

FC(F)(F)c1cc(-c2ccc(-c3ccsc3)cc2)n(-c2ccc(N3CCNCC3)cc2)n1 [Compound 210]
pIC50 [1]: 5.60 | CC50 (THP-1 macrophages): 10.5 µM

FC(F)(F)c1ccc(-c2ccc(-c3cc(C(F)(F)F)nn3-c3ccc(NC4CCN(Cc5ccccc5)CC4)cc3)cc2)cc1 [Compound 115]
pIC50 [1]: 5.13 | CC50 (THP-1 macrophages): 13.2 µM

O=[N+]([O-])c1ccc(-n2nc(C(F)(F)F)cc2-c2ccc(-c3ccc(S(F)(F)(F)(F)F)cc3)cc2)cc1 [Compound 103]
pIC50 [1]: < 5.00 | CC50 (THP-1 macrophages): > 50 µM

FC(F)(F)c1cc(-c2ccc(C#CC3CC3)cc2)n(-c2ccc(N3CCNCC3)cc2)n1 [Compound 42]
pIC50 [1]: 5.38 | CC50 (THP-1 macrophages): 0.7 µM

Nc1ccc(-c2cc(C(F)(F)F)nn2-c2ccc(-c3ccc(C(F)(F)F)cc3)cc2)cc1 [Compound 152]
pIC50 [1]: < 5.00 | CC50 (THP-1 macrophages): 43.6 µM

CC(C)(C)OC(=O)NC1CCN(c2ccc(-n3nc(C(F)(F)F)cc3-c3ccc(-c4ccc(C(F)(F)F)cc4)cc3)cc2)CC1 [Compound 72]
pIC50 [1]: < 5.00 | CC50 (THP-1 macrophages): > 50 µM

NC1CCN(c2ccc(-n3nncc3-c3ccc(-c4ccc(C(F)(F)F)cc4)cc3)cc2)C1 (centres unmarked) [Compound 137]
pIC50 [1]: 5.36 | CC50 (THP-1 macrophages): 7.3 µM

CC(C)(C)OC(=O)NC1CCN(c2ccc(-n3cc(C(F)(F)F)nc3-c3ccc(-c4ccccc4)cc3)cc2)C1 (centres unmarked) [Compound 82]
pIC50 [1]: < 5.00 | CC50 (THP-1 macrophages): > 50 µM

NC1CCN(c2ccc(-n3nc(C(F)(F)F)cc3-c3ccc(-c4ccc(C(F)(F)F)cc4)cc3)cc2)CC1 [Compound 73]
pIC50 [1]: 5.57 | CC50 (THP-1 macrophages): 4.8 µM

FC(F)(F)c1cc(C2CCCCC2)n(-c2ccc(OC3CCNCC3)cc2)n1 [Compound 370]
pIC50 [1]: 5.59 | CC50 (THP-1 macrophages): 19.5 µM

FC(F)(F)c1ccc(-c2ccc(-c3cc(C(F)(F)F)nn3-c3ccc(OC4CCNC4)cc3)cc2)cc1 (centres unmarked) [Compound 144]
pIC50 [1]: < 5.00 | CC50 (THP-1 macrophages): 5.4 µM

Oc1ccc(CN2CCC(Oc3ccc(-n4nc(C(F)(F)F)cc4C4CCCCC4)cc3)C2)cc1 (centres unmarked) [Compound 377]
pIC50 [1]: 5.08 | CC50 (THP-1 macrophages): 14.6 µM

COC(=O)c1ccc(-n2cc(C(F)(F)F)nc2-c2ccc(-c3ccc(C(F)(F)F)cc3)cc2)c(F)c1 [Compound 175]
pIC50 [1]: < 5.00 | CC50 (THP-1 macrophages): > 50 µM

Fc1cccc(CNC2CCN(c3ccc(-n4nc(C(F)(F)F)cc4-c4ccc(-c5ccc(S(F)(F)(F)(F)F)cc5)cc4)cc3)C2)c1 (centres unmarked) [Compound 108]
pIC50 [1]: < 5.00 | CC50 (THP-1 macrophages): > 50 µM

NCC(=O)NC1CCN(c2ccc(-n3nc(C(F)(F)F)cc3-c3ccc(-c4ccc(C(F)(F)F)cc4)cc3)cc2)CC1 [Compound 111]
pIC50 [1]: 5.54 | CC50 (THP-1 macrophages): 5.2 µM

NC(Cc1ccccc1)C(=O)Nc1ccc(-n2cc(C(F)(F)F)nc2-c2ccc(-c3ccc(C(F)(F)F)cc3)cc2)cc1 (centres unmarked) [Compound 80]
pIC50 [1]: 5.52 | CC50 (THP-1 macrophages): 8.2 µM

FC(F)(F)c1ccc(-c2ccc(-c3cc(C(F)(F)F)nn3-c3ccc(NCCCCl)cc3)cc2)cc1 [Compound 67]
pIC50 [1]: < 5.00 | CC50 (THP-1 macrophages): > 50 µM

NCC(=O)Nc1ccc(-n2cc(C(F)(F)F)nc2-c2ccc(Br)cc2)cc1 [Compound 195]
pIC50 [1]: < 5.00 | CC50 (THP-1 macrophages): 38.6 µM

NCC(=O)Nc1ccc(-n2cc(C(F)(F)F)nc2-c2ccc(-c3ccc(C(F)(F)F)cc3)cc2)cc1 [Compound 79]
pIC50 [1]: 5.15 | CC50 (THP-1 macrophages): 6.3 µM

CCc1cc(C(F)(F)F)nn1-c1ccc(NC2CCNC2)cc1 (centres unmarked) [Compound 318]
pIC50 [1]: 5.74 | CC50 (THP-1 macrophages): 27 µM

FC(F)(F)c1ccc(-c2ccc(-c3nc(C(F)(F)F)c[nH]3)cc2)cc1 [Compound 75]
pIC50 [1]: < 5.00 | CC50 (THP-1 macrophages): 48.8 µM

NCC(=O)Nc1ccc(-n2nc(C(F)(F)F)c3c2CCCC3)cc1 [Compound 331]
pIC50 [1]: 5.00 | CC50 (THP-1 macrophages): 47 µM

C#CCCCC(=O)NC1CCN(c2ccc(-n3nc(C(F)(F)F)cc3-c3ccc(-c4ccc(C(F)(F)F)cc4)cc3)cc2)CC1 [Compound 92]
pIC50 [1]: < 5.00 | CC50 (THP-1 macrophages): 14.7 µM

FC(F)(F)c1cc(C2CCCCC2)n(-c2ccc(Br)cc2)n1 [Compound 215]
pIC50 [1]: < 5.00 | CC50 (THP-1 macrophages): > 50 µM

NC1CCN(c2ccc(-n3nc(C(F)(F)F)cc3-c3ccc(F)cc3)cc2)C1 (centres unmarked) [Compound 248]
pIC50 [1]: 5.59 | CC50 (THP-1 macrophages): 14.4 µM

NCCCNC1CCN(c2ccc(-n3nc(C(F)(F)F)cc3C3CCCCC3)cc2)CC1 [Compound 420]
pIC50 [1]: 6.00 | CC50 (THP-1 macrophages): 7 µM

NCCN1CCC(Oc2ccc(-n3nc(C(F)(F)F)cc3C3CCCCC3)cc2)CC1 [Compound 416]
pIC50 [1]: 5.89 | CC50 (THP-1 macrophages): 18.2 µM

CC(C)(C)OC(=O)NCC(=O)Nc1ccc(-n2cc(C(F)(F)F)nc2-c2ccc(-c3ccc(C(F)(F)F)cc3)cc2)cc1 [Compound 77]
pIC50 [1]: < 5.00 | CC50 (THP-1 macrophages): > 50 µM

FC(F)(F)c1ccc(-c2ccc(-c3cc(C(F)(F)F)nn3-c3ccc(NC4CCN(Cc5ccc(Cl)c(Cl)c5)CC4)cc3)cc2)cc1 [Compound 90]
pIC50 [1]: < 5.00 | CC50 (THP-1 macrophages): > 50 µM

O=C(NCc1cccc(F)c1)c1ccc(-n2cc(C(F)(F)F)nc2-c2ccc(-c3ccc(C(F)(F)F)cc3)cc2)c(F)c1 [Compound 181]
pIC50 [1]: < 5.00 | CC50 (THP-1 macrophages): 28.7 µM

CN(C)c1ccc(-c2cc(C(F)(F)F)nn2-c2ccc(N3CCC(NC(=O)OC(C)(C)C)C3)cc2)cc1 (centres unmarked) [Compound 217]
pIC50 [1]: < 5.00 | CC50 (THP-1 macrophages): > 50 µM

FC(F)(F)c1ccc(-c2ccc(-c3cc(C(F)(F)F)nn3-c3ccc(NC4CNC4)cc3)cc2)cc1 [Compound 3]
pIC50 [1]: 5.74 | CC50 (THP-1 macrophages): 11 µM

FC(F)(F)c1cc(-c2ccc(-c3ccc(S(F)(F)(F)(F)F)cc3)cc2)n(-c2ccc(N3CCC(NCc4ccccc4)C3)cc2)n1 (centres unmarked) [Compound 107]
pIC50 [1]: < 5.00 | CC50 (THP-1 macrophages): > 50 µM

CC(C)(C)OC(=O)NC1CCN(c2ccc(-n3nc(C(F)(F)F)cc3-c3ccc(-c4ccc(C(F)(F)F)cc4)cc3)cc2)C1 (centres unmarked) [Compound 140]
pIC50 [1]: < 5.00 | CC50 (THP-1 macrophages): > 50 µM

Cc1ccc(-c2cc(C(F)(F)F)nn2-c2ccc(Br)cc2)cc1 [Compound 196]
pIC50 [1]: < 5.00 | CC50 (THP-1 macrophages): > 50 µM

FC(F)(F)Oc1ccc(-n2nc(C(F)(F)F)cc2-c2ccc(-c3ccc(C(F)(F)F)cc3)cc2)cc1 [Compound 186]
pIC50 [1]: < 5.00 | CC50 (THP-1 macrophages): > 50 µM

O=[N+]([O-])c1ccc(-c2cc(C(F)(F)F)nn2-c2ccc(Br)cc2)cc1 [Compound 143]
pIC50 [1]: < 5.00 | CC50 (THP-1 macrophages): > 50 µM

COc1ccc(C(=O)N2CCC(Nc3ccc(-n4nc(C(F)(F)F)cc4-c4ccc(-c5ccc(C(F)(F)F)cc5)cc4)cc3)C2)cc1OC (centres unmarked) [Compound 70]
pIC50 [1]: < 5.00 | CC50 (THP-1 macrophages): > 50 µM

Oc1ccc(CNC2CCN(c3ccc(-n4nc(C(F)(F)F)cc4-c4ccc(-c5ccc(C(F)(F)F)cc5)cc4)cc3)C2)cc1 (centres unmarked) [Compound 18]
pIC50 [1]: 5.40 | CC50 (THP-1 macrophages): 24.5 µM

NC1CCN(C(=O)c2ccc(-n3cc(C(F)(F)F)nc3-c3ccc(-c4ccc(C(F)(F)F)cc4)cc3)c(F)c2)C1 (centres unmarked) [Compound 199]
pIC50 [1]: 5.89 | CC50 (THP-1 macrophages): 9.4 µM

O=C(CCCCBr)N1CCC(Nc2ccc(-n3nc(C(F)(F)F)cc3-c3ccc(-c4ccc(C(F)(F)F)cc4)cc3)cc2)CC1 [Compound 117]
pIC50 [1]: 5.21 | CC50 (THP-1 macrophages): > 50 µM

COc1ccc(-c2cc(C(F)(F)F)nn2-c2ccc(NC3CCNC3)cc2)cc1OC (centres unmarked) [Compound 260]
pIC50 [1]: 5.37 | CC50 (THP-1 macrophages): 13.9 µM

FC(F)(F)c1cc(-c2ccc(-c3ccc(S(F)(F)(F)(F)F)cc3)cc2)n(-c2ccc(Br)cc2)n1 [Compound 105]
pIC50 [1]: < 5.00 | CC50 (THP-1 macrophages): > 50 µM

N#Cc1ccc(CN2CCC(Nc3ccc(-n4nc(C(F)(F)F)cc4C4CCCCC4)cc3)CC2)cc1 [Compound 323]
pIC50 [1]: 5.05 | CC50 (THP-1 macrophages): 28.3 µM
